Key:
[1] = system: L1210/CPA cells; test: Flow cytometry of dansyl fluorescence in cells incubated with the compound; type: cell-based, mouse; conditions: L1210/CPA cells incubated with 50 μM dansyl glycine alone, 10^6 cells/ml, 30 minutes, 37° C.; FIG. 1E
Protocol: In an attempt to examine cytosolic ALDH on a single-cell basis, leukemia cell lines and bone marrow cells were incubated with the fluorescent substrate DAAA, washed, and subjected to flow cytometry. The cell lines and plastic nonadherent mononuclear marrow cells were incubated with 50 μM DAAA at 10^6 cells/ml for 30 minutes at 37° C. After washing twice, some mononuclear marrow cells were treated with fluorescent monoclonal antibodies (Becton-Dickinson, Mountain View, Calif.), as previously described (M. B. Kastan et al., Blood 74:1517, 1989) to study cytosolic ALDH activity of CD34^+, CD19^+, and CD5^+ marrow cells. The cells were sorted on a Epics 753 Dual Laser Flow Cytometer (Coulter Electronics, Hialeah, Fla.) equipped with two 90-5 water cooled argon lasers (Coherent, Palo Alto, Calif.). Dansyl fluorescence was excited at both 351.1 nm and 363.8 nm using a multiline ultraviolet filter, and was detected at 521 nm. […]

[2] = system: Mouse CFU-GM; test: Growth of mouse bone marrow progenitors isolated by DAAA and flow cytometry; type: cell-based
Protocol: (§1) In an attempt to examine cytosolic ALDH on a single-cell basis, leukemia cell lines and bone marrow cells were incubated with the fluorescent substrate DAAA, washed, and subjected to flow cytometry. The cell lines and plastic nonadherent mononuclear marrow cells were incubated with 50 μM DAAA at 10^6 cells/ml for 30 minutes at 37° C. After washing twice, some mononuclear marrow cells were treated with fluorescent monoclonal antibodies (Becton-Dickinson, Mountain View, Calif.), as previously described ([…] et al., Blood 74:1517, 1989) to study cytosolic ALDH activity of CD34^+, CD19^+, and CD5^+ marrow cells. […] Dansyl fluorescence was excited at both 351.1 nm and 363.8 nm using a multiline ultraviolet filter, and was detected at 521 nm. Cytosolic ALDH activity was estimated by the corrected mean fluorescence intensity (MFI) ([…] et al., Blood 75:1947, 1990; […], 1989, supra] of dansyl staining, which equals the mean fluorescence of unstained cells subtracted from the mean fluorescence of cells treated with DAAA. The mean fluorescence level represents the average channel value for a given sample on the flow cytometer. To confirm that cellular dansyl fluorescence was the result of the activity of cytosolic ALDH, L1210/CPA cells were incubated with 50 μM 4-(diethylamino) benzaldehyde (DEAB) for 15 minutes at 37° C. prior to the DAAA incubations to inhibit cytosolic ALDH activity. […]

[3] = system: Human CFU-GM; test: Growth of human bone marrow hematopoietic progenitors after DAAA and flow cytometry; type: cell-based
Protocol: In an attempt to examine cytosolic ALDH on a single-cell basis, leukemia cell lines and bone marrow cells were incubated with the fluorescent substrate DAAA, washed, and subjected to flow cytometry. The cell lines and plastic nonadherent mononuclear marrow cells were incubated with 50 μM DAAA at 10^6 cells/ml for 30 minutes at 37° C. After washing twice, some mononuclear marrow cells were treated with fluorescent monoclonal antibodies (Becton-Dickinson, Mountain View, Calif.), as previously described ([…] et al., Blood 74:1517, 1989) to study cytosolic ALDH activity of CD34^+, CD19^+, and CD5^+ marrow cells. The cells were sorted on a Epics 753 Dual Laser Flow Cytometer (Coulter Electronics, Hialeah, Fla.) equipped with two 90-5 water cooled argon lasers (Coherent, Palo Alto, Calif.). Dansyl fluorescence was excited at both 351.1 nm and 363.8 nm using a multiline ultraviolet filter, and was detected at 521 nm. Cytosolic ALDH activity was estimated by the corrected mean fluorescence intensity (MFI) ([…] et al., Blood 75:1947, 1990; […], 1989, supra] of dansyl staining, which equals the mean fluorescence of unstained cells subtracted from the mean fluorescence of cells treated with DAAA. The mean fluorescence level represents the average channel value for a given sample on the flow cytometer. To confirm that cellular dansyl fluorescence was the result of the activity of cytosolic ALDH, L1210/CPA cells were incubated with 50 μM 4-(diethylamino) benzaldehyde (DEAB) for 15 minutes at 37° C. prior to the DAAA incubations to inhibit cytosolic ALDH activity. […] (J. E. Russo et al., Biochem Pharmacol 37:1639, 1988) L1210/CPA cells were also incubated with 50 μM dansyl glycine (DG) alone (Sigma, St. Louis, Mo.) at 10^6 cells/ml for 30 minutes at 37° C. […] The data in Table 1 show the results of flow cytometry sorting of human and mouse marrow cells based on their fluorescence intensity after incubation with DAAA. The assays of progenitor content is also shown. Isolation of bone marrow cells with high ALDH expression by fluorescence sorting based on DAAA was enriched for hematopoietic progenitors capable of both in vitro and in vivo growth. The 5% of human bone marrow cells with highest dansyl fluorescence produced substantially more CFU-GM than the 5% of cells with lowest dansyl fluorescence (p=0.007, T-test). Similarly, using DAAA-derived fluorescence, it was possible to obtain a composition that is enriched for CFU-GM (p=0.03) and the more primitive CFU-S (p=0.01) from mouse bone marrow.

[4] = system: Mouse CFU-S (day 8); test: Mouse CFU-S (day 8) of bone marrow cells isolated by DAAA and flow cytometry; type: in vivo
Protocol: as §1

[5] = system: cytosolic ALDH; conditions: J. E. Russo et al., Biochem Pharmacol 37:1639, 1988; cited from earlier work
[6] = system: cells; conditions: in vitro and in vivo; J. E. Russo et al., 1988; cited from earlier work
[7] = 5% cells with the highest fluorescence after DAAA
[8] = 5% of cells with the lowest fluorescence after DAAA

SMILES: CN(C)c1cccc2c(S(=O)(=O)NCC(=O)O)cccc12 [dansyl glycine]
- dansyl fluorescence of cells [1]: no detectable fluorescence

SMILES: CN(C)c1cccc2c(S(=O)(=O)NCC=O)cccc12 [DAAA, N-dansyl aminoacetaldehyde]
- Colonies/10^5 cells, Mouse CFU-GM, Dansyl+ [2, 7]: 800 ± 185 Colonies/10^5 cells
- Colonies/10^5 cells, Mouse CFU-GM, Dansyl- [2, 8]: 250 ± 60 Colonies/10^5 cells
- Colonies/10^5 cells, Human CFU-GM, Dansyl+ MNMC [3, 7]: 216 ± 13 Colonies/10^5 cells
- Colonies/10^5 cells, Human CFU-GM, Dansyl- MNMC [3, 8]: 67 ± 20 Colonies/10^5 cells
- harm to cells / progenitor growth after DAAA treatment ([3]; human bone marrow cells treated with DAAA and processed by flow cytometry (not sorted)): did not appear to harm cells
- Colonies/10^5 cells, Human CFU-GM, Stained MNMC ([3]; mononuclear marrow cells incubated with DAAA and processed (but not sorted) by flow cytometry, unstained MNMC 163 ± 5): 155 ± 5 Colonies/10^5 cells
- Colonies/10^5 cells, Mouse CFU-S (day 8), Dansyl+ [4, 7]: 23.5 ± 1 Colonies/10^5 cells
- Colonies/10^5 cells, Mouse CFU-S (day 8), Dansyl- [4, 8]: 7 ± 1.3 Colonies/10^5 cells

SMILES: CCN(CC)c1ccc(C=O)cc1 [DEAB, 4-(diethylamino) benzaldehyde]
- inhibition of cytosolic ALDH [5]: specific, competitive inhibitor of cytosolic ALDH
- toxicity to cells [6]: nontoxic to cells in vitro and in vivo

Source: patent publication US5876956A, “Methods for identification or purification of cells containing an enzymatic intracellular marker” (Johns Hopkins University School of Medicine, priority 1995, dated 1999)
